Laboratory results from patent publication US7507834B2, “Substituted anilinopyrazoles” (SmithKline Beechan Corporation, priority 2003, dated 2009).

Molecular target: CDK2 (Homo sapiens, UniProt P24941)
Experiment: CDK2 substrate phosphorylation assay
Type: biochemical
Settings: CDK2 expressed in baculovirus system; peptide Biotin-aminohexyl-ARRPMSPKKKA-NH2, [g-32P]ATP; pIC50 = −log10(IC50)
Protocol: The compounds of the present invention have valuable pharmacologic properties. Different compounds from this class are particularly effective at inhibiting CDK2. Substrate phosphorylation assays were carried out as follows:
Cyclin dependent protein kinase 2 assays utilized the peptide Biotin-aminohexyl-ARRPMSPKKKA-NH2 (SEQ ID NO:1) as phosphoryl group acceptor. CDK2 was expressed utilizing a baculovirus expression system and was partially purified to comprise 20-80% of total protein, with no detectable competing reactions present. Typically, assays were performed by incubating enzyme (0.2-10 nM), with and without inhibitor, peptide substrate ([…]), [g-32P]ATP ([…]), and 10-20 mM Mg2+ for periods of time generally within the range 10-120 minutes. Reactions were terminated with 0.2-2 volumes of either 20% acetic acid or 50-100 mM EDTA buffered to pH 7 (substrate consumption <20%). The buffer employed in enzyme assay was 100 mM HEPES pH 7.5 containing 0.1 mg/mL BSA and 5% DMSO. Inhibitors were diluted in 100% DMSO prior to addition into the assay. Detection of peptide phosphorylation was accomplished by scintillation counting following either collection of peptide onto phosphocellulose filters (for reactions stopped with acetic acid), collection of peptide in wells of 96 well plates coated with Streptavidin (Pierce) (reactions were stopped with EDTA), or addition of Avidin coated Scintillant impregnated beads (Scintillation Proximity Assays from Amersham, reactions were stopped with EDTA). Counts detected by any of these methodologies minus the appropriate background (assays with additional 40 mM EDTA or lacking peptide substrate) were assumed to be proportional to the reaction initial rates, and IC50s were determined by a least squares fit to the equation CPM=Vmax*(1−([I]/(K+[I])))+nsb, or −pIC50s were determined by a fit to the equation CPM=nsb+(Vmax−nsb)/(1+(x/10x−pIC50)), where nsb are the background counts […]. Radioactivity was determined by liquid scintillation counting.

Row | IC50 [nM] | SMILES
1 | 1.02 to 10 | Nc1cccc(-c2cc(Nc3ccc(S(N)(=O)=O)cc3)[nH]n2)c1 [Compound Ij, 4-[5-(3-Amino-phenyl)-2H-pyrazol-3-ylamino]-benzenesulfonamide]
2 | 10.2 to 100 | NS(=O)(=O)c1ccc(Nc2cc(-c3cccc(NC(=O)Nc4cc(C(F)(F)F)ccc4F)c3)n[nH]2)cc1 [Compound Il, 4-(5-{3-[3-(2-Fluoro-5-trifluoromethyl-phenyl)-ureido]-phenyl}-2H-pyrazol-3-ylamino)-benzenesulfonamide]
3 | 0.102 to 1 | Nc1ccc(-c2cc(Nc3ccc(S(N)(=O)=O)cc3)[nH]n2)cc1 [Ih, 4-[5-(4-Amino-phenyl)-2H-pyrazol-3-ylamino]-benzenesulfonamide]
4 | 102 to 20000 | NS(=O)(=O)c1ccc(Nc2cc(-c3cccc(N4CCOCC4)c3)n[nH]2)cc1 [In, 4-[5-(3-Morpholin-4-yl-phenyl)-2H-pyrazol-3-ylamino]-benzenesulfonamide]
